Measured values published in patent US11186577B2, “Vasopressin receptor antagonists and products and methods related thereto” (BlackThorn Therapeutics, Inc., priority 2017, dated 2021).
Like-named read-outs stand apart in the source and are kept apart here.

Key:
MDR1-MDCK cells = assay: MDR1-MDCK effective efflux assay (Transwell, 10 μM, 1 hour), MDR1-MDCK cells; assay type: in vitro ADME; details: for MDR1 EER / MDR1 ER: MDCK-MDR1
Summary of the method: (§1)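 Wild-type and MDR1-MDCK monolayers cultured 3 days were dosed with compound at 10 μM (0.1% DMSO) in HBSS/25 mM HEPES pH 7.4, in both A>B and B>A directions, for 1 h at 37 °C. Samples were quantified by LC-MS/MS to give Papp and efflux ratio. Effective efflux ratio = ER(MDR1-MDCK)/ER(wild-type); Lucifer Yellow checked monolayer integrity.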

V1a receptors = V1a receptors (Rattus norvegicus (Rat), UniProt P30560); assay: Arginine-Vasopressin (AVP) induced phospho-Erk measurement in rat choroid plexus (RCP) cells; assay type: cell-based
V1a receptors, sequence (P30560 whole entry): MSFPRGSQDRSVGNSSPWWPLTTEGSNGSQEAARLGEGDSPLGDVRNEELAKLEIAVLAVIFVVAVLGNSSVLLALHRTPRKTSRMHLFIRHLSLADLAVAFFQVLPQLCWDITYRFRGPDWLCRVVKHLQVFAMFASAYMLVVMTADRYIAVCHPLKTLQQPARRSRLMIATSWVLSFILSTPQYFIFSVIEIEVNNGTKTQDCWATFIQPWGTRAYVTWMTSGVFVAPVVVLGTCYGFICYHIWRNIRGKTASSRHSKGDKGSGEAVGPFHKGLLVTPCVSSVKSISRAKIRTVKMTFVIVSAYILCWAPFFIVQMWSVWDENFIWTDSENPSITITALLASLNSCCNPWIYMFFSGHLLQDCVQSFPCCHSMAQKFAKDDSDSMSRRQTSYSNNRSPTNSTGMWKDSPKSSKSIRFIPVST
From the text: When V1a receptors are coupled to phospholipase C (PLC), they increase intracellular Ca2+ concentrations and protein kinase C (PKC) activity, and transactivate the mitogen-activated protein kinases/extracellular signal-regulated kinase (MAPK/Erk) and PI3 kinase/Akt pathways upon activation (Chen et al., J Neuroendocrinol. 2010). Rat choroid plexus (RCP) cell lines express functional V1a receptors measured by increased calcium concentrations in response to V1a receptor agonists (Battle et al., Biochem Biophys Res Comm 2000).
RCP P9(18) cells were seeded 30K/well, in 100 μl growth medium containing 10% FBS in polystyrene 96-well plates and incubated at 37° C., 5% CO2 and incubated overnight. The following day, the growth medium was replaced with 50 μl pre-warmed HBSS containing 20 mM HEPES and the cells were incubated at 37° C., 5% CO2 for 1.5 hrs. 1 mM AVP (Sigma V9879) was freshly prepared in distilled water in a glass vial, and diluted to 3× concentrations in HBSS containing 20 mM HEPES and 0.1% BSA in glass vials and kept on ice. Cells were treated with 25 μl 3× vehicle, 3× eBioscience Cell Stimulation Cocktail (Thermo Fisher Scientific 00-4970-93) or 3×AVP and incubated at 37° C., 5% CO2 for 5, 10 or 20 min. Final concentrations of AVP: 10, 100 or 1000 nM. Final concentrations of components in Cell Stimulation Cocktail: 81 nM PMA, 1.34 μM ionomycin, 0.2% ethanol. Cells were lysed with 25 μl 4×CST lysis buffer containing protease and phosphatase inhibitors, PMSF and SDS and then stored at −80° C., for 48 h. The lysates were thawed, centrifuged at 2000 g for 30 min at 4° C. and 40 μl supernatants assayed for pERK1/2 (Thr202/Tyr204; Thr185/Tyr187) and total ERK1/2 using MSD kit K15107D. The MSD ECL data for the lysates were corrected for no cell blanks, then phospho-protein levels expressed as a ratio to the total ERK1/2 level. The ratios were expressed as fold-change from the vehicle-treated control at each timepoint.

[1] = test system: wild-type (WT) MDCK cells; assay: MDR1-MDCK effective efflux assay (Transwell, 10 μM, 1 hour), wild-type MDCK cells; assay type: in vitro ADME; details: for WT ER: MDCK
Summary of the method: as §1

in vitro = details: dog, MDCK
MDR1 (P-gp) = assay: in vitro; details: dog, MDCK-MDR1
CD-1 mice = assay: Arginine-Vasopressin (AVP) induced behavior in mouse (i.c.v. AVP, scratching, digging, grooming); assay type: in vivo; details: 100 mg/kg, po
Protocol: Administration of Arginine-Vasopressin (AVP) intracerebroventricularly (i.c.v.) elicits characteristic scratching, digging and grooming behavior in mice that can be measured readily and is sensitive to blockade with vasopressin antagonists (Meisenberg, 1988; Bleickart et al., 2009).
Male CD-1 mice (Charles River Germany) weighing 22-25 g upon the study in-life are used for this study. Animals are housed in groups of 4-5 per cage in standard temperature (22±1° C.) and light-controlled environment (lights on from 7 am to […]), with ad libitum access to food and water. Prior to commencing any procedures to the mice, they are allowed to habituate in the vivarium for a minimum of 7 days.
Anesthesia is induced in a plexiglass chamber for 2-3 min with 5% isoflurane, and maintained through a snout mask with 1-2% isoflurane thereafter. A homeothermic blanket system with a rectal probe is used to monitor and maintain the animal's body temperature at 37.0° C.±1.5° C. during the operation. […] The actual coordinates are calculated by the distance from the point in midline between the eyes and no skin incision is made. […]
Mice are observed and video-recorded for 15 minutes following AVP/saline administration and behaviors are measured (in seconds) and a cumulative time is calculated. […]

MDR1 (P-glycoprotein) = assay: MDR1-MDCK effective efflux assay (Transwell, 10 μM, 1 hour), MDR1-MDCK cells; assay type: in vitro ADME; details: dog, MDCK-MDR1, pH 7.4, Papp AB MDR1
Summary of the method: as §1

[2] = MDR1-MDCK effective efflux assay (Transwell, 10 μM, 1 hour), wild-type MDCK cells; assay type: in vitro ADME; details: dog, MDCK, pH 7.4, Papp AB WT
Summary of the method: as §1

[3] = second study, read-out: IC50, AVP induced pERK1/2 to total ERK1/2
[4] = study 1, read-out: IC50, AVP induced pERK1/2 to total ERK1/2

Compound | Papp AB MDR1 (MDR1-MDCK cells; MDR1-MDCK cells, apical to basolateral (A>B), 10 μM, 1 hour) | IC50 (V1a receptors; [3]) [nM] | IC50 (V1a receptors; [4]) [nM] | Papp AB WT ([1]; wild-type MDCK cells, apical to basolateral (A>B), 10 μM, 1 hour) | Papp A→B at 2 h (in vitro) [×10⁻⁶ cm/s] | Papp A→B at 2 h (MDR1 (P-gp)) [×10⁻⁶ cm/s] | antagonist activity to AVP-induced scratching behaviors (CD-1 mice) | Papp A→B at 1 h, 10 μM (MDR1 (P-glycoprotein)) [×10⁻⁶ cm/s] | MDR1 EER (MDR1-MDCK cells) | MDR1 ER (MDR1-MDCK cells) | Papp A→B at 1 h, 10 μM [2] [×10⁻⁶ cm/s] | WT ER [1]
COC(=O)N1Cc2cc(Cl)ccc2-n2c(C3CC4(C3)CN(c3ccc(F)cn3)C4)nnc2C1C (single isomer, unassigned) [142A] | ++++ ((++++) denotes >20 (10^-6 cm/sec)) | 20 | 16 | ++++ ((++++) denotes >20 (10^-6 cm/sec)) |  |  |  |  |  |  |  | 
CN1Cc2cc(Cl)ccc2-n2c(nnc2[C@H]2CC[C@H](Oc3ccccn3)CC2)C1 [balovaptan, reference compound] |  | 56.7 | 85.6 |  | 10 to 20 | > 20 | effective |  |  |  |  | 
CC(C)C(=O)N1Cc2cc(Cl)ccc2-n2c(nnc2C2CC3(C2)CN(c2ccccn2)C3)C1 [compound 71] |  |  |  |  |  |  |  | < 7 | + | + | > 20 | ++++
O=C(N1Cc2cc(Cl)ccc2-n2c(nnc2C2CC3(C2)CN(c2cnccn2)C3)C1)C1(F)CC1 [compound 81] |  |  |  |  |  |  |  | 7 to 10 | + | + | > 20 | +++
O=C(C1CC1)N1CC2(CC(c3nnc4n3-c3ccc(Cl)cc3CN(C(=O)C3(F)CC3)C4)C2)C1 [compound 136] |  |  |  |  |  |  |  | < 7 | + | + | 10 to 20 | +
COC(=O)N1Cc2cc(Cl)ccc2-n2c(C3CC4(C3)CN(c3ccc(F)cn3)C4)nnc2C1C (centres unmarked) [compound 142, methyl 8-chloro-1-(2-(5-fluoropyridin-2-yl)-2-azaspiro[3.3]heptan-6-yl)-4-methyl-4H-benzo[f][1,2,4]triazolo[4,3-a][1,4]diazepine-5(6H)-carboxylate] |  |  |  |  |  |  |  | > 20 | + | ++ | > 20 | ++++
CC(C)OC(=O)N1Cc2cc(Cl)ccc2-n2c(nnc2C2CC3(C2)CN(C(=O)C2CC2)C3)C1 [compound 153] |  |  |  |  |  |  |  | < 7 | + | + | > 20 | ++
COC(=O)N1Cc2cc(Cl)ccc2-n2c(C3CC4(C3)CN(c3ncccn3)C4)nnc2C1C (centres unmarked) [compound 166] |  |  |  |  |  |  |  | < 7 | + | + | > 20 | +++
CC(C)OC(=O)N1Cc2cc(Cl)ccc2-n2c(C3CC4(C3)CN(c3ncccn3)C4)nnc2C1C (centres unmarked) [compound 167] |  |  |  |  |  |  |  | > 20 | +++ | +++ | > 20 | +++
CCOC(=O)N1Cc2cc(Cl)ccc2-n2c(C3CC4(C3)CN(c3ncccn3)C4)nnc2C1C (centres unmarked) [compound 168] |  |  |  |  |  |  |  | 7 to 10 | + | + | > 20 | +++
COC(=O)N1Cc2cc(Cl)ccc2-n2c(C3CC4(C3)CN(c3ncc(F)cn3)C4)nnc2C1C (centres unmarked) [compound 170] |  |  |  |  |  |  |  | 10 to 20 | + | + | > 20 | ++++
CC1c2nnc(C3CC4(C3)CN(c3ncccn3)C4)n2-c2ccc(Cl)cc2CN1C(=O)OC1CC1 (centres unmarked) [compound 171] |  |  |  |  |  |  |  | 10 to 20 | + | + | > 20 | ++++
CCOC(=O)N1Cc2cc(Cl)ccc2-n2c(C3CC4(C3)CN(c3ncc(F)cn3)C4)nnc2C1C (centres unmarked) [compound 172] |  |  |  |  |  |  |  | > 20 | ++ | ++ | > 20 | ++++
CC1c2nnc(C3CC4(C3)CN(c3cnccn3)C4)n2-c2ccc(Cl)cc2CN1C(=O)C1(F)CC1 (centres unmarked) [compound 177] |  |  |  |  |  |  |  | < 7 | + | + | > 20 | +++
CC1c2nnc(C3CC4(C3)CN(c3ncc(F)cn3)C4)n2-c2ccc(Cl)cc2CN1C(=O)OC(CF)CF (centres unmarked) [compound 194] |  |  |  |  |  |  |  | 10 to 20 | + | + | 10 to 20 | ++++
